Data taken from ChEMBL document CHEMBL4811255, “Antibacterial and Antifungal Polyketides from the Fungus Aspergillus unguis PSU-MF16” (J Nat Prod, 2021).
Converted amounts (≈) assume the structure as drawn. The source made the active and inactive calls. No cut-off for these calls is given here.

What was measured:
Vero [1] = test: Cytotoxicity against African green monkey Vero cells by colorimetric assay; type: cell-based; details: Chlorocebus sabaeus
Candida albicans [2] = test: Antifungal activity against Candida albicans NCPF 90028 assessed as fungal growth inhibition incubated for 24 to 48 hrs by CLSI protocol based agar microdilution method; type: functional; details: time 24-48 hrs
Nannizzia gypsea [3] = test: Antifungal activity against Microsporum gypseum assessed as fungal growth inhibition by CLSI protocol based assay; type: functional
Staphylococcus aureus [4] = test: Antibacterial activity against Staphylococcus aureus ATCC 25923 assessed as bacterial growth inhibition by CLSI protocol based assay; type: functional
Staphylococcus aureus [5] = test: Antibacterial activity against methicillin-resistant Staphylococcus aureus assessed as bacterial growth inhibition incubated for 18 hrs by CLSI protocol based agar microdilution method; type: functional
Cryptococcus neoformans [6] = test: Antifungal activity against Cryptococcus neoformans ATCC 90113 assessed as fungal growth inhibition by CLSI protocol based assay; type: functional
Candida albicans [7] = test: Antifungal activity against Candida albicans NCPF 90028 assessed as fungal growth inhibition by CLSI protocol based assay; type: functional
Cryptococcus neoformans [8] = test: Antifungal activity against Cryptococcus neoformans ATCC 90113 assessed as fungal growth inhibition incubated for 24 to 48 hrs by CLSI protocol based agar microdilution method; type: functional; details: time 24-48 hrs
Vero [9] = test: Cytotoxicity against African green monkey Vero cells incubated for 24 hrs by MTT assay; type: cell-based; details: Chlorocebus sabaeus
Nannizzia gypsea [10] = test: Antifungal activity against Microsporum gypseum assessed as fungal growth inhibition incubated for 4 days by CLSI protocol based agar microdilution method; type: functional; details: 96 h, time 4 day
Staphylococcus aureus [11] = test: Antibacterial activity against methicillin-resistant Staphylococcus aureus assessed as bacterial growth inhibition by CLSI protocol based assay; type: functional
Staphylococcus aureus [12] = test: Antibacterial activity against Staphylococcus aureus ATCC 25923 assessed as bacterial growth inhibition incubated for 18 hrs by CLSI protocol based agar microdilution method; type: functional
Candida albicans [13] = test: Antifungal activity against Candida albicans NCPF 90028 assessed as fungal growth inhibition at 50 ug/ml by CLSI protocol based assay; type: functional, organism-based; details: dose 50.0 µg/ml
Staphylococcus aureus [14] = test: Antibacterial activity against Staphylococcus aureus ATCC 25923 assessed as bacterial growth inhibition at 50 ug/ml by CLSI protocol based assay; type: functional, organism-based; details: dose 50.0 µg/ml
Staphylococcus aureus [15] = test: Antibacterial activity against methicillin-resistant Staphylococcus aureus assessed as bacterial growth inhibition at 50 ug/ml by CLSI protocol based assay; type: functional, organism-based; details: dose 50.0 µg/ml
Vero [16] = test: Cytotoxicity against African green monkey Vero cells at 50 ug/ml incubated for 24 hrs by MTT assay; type: cell-based; details: chlorocebus sabaeus, dose 50 µg/ml
Nannizzia gypsea [17] = test: Antifungal activity against Microsporum gypseum assessed as fungal growth inhibition at 50 ug/ml by CLSI protocol based assay; type: functional, organism-based; details: dose 50.0 µg/ml

Structure (SMILES)	IC50 (Vero [1])	MIC (Candida albicans [2])	MIC (Nannizzia gypsea [3])	MIC (Staphylococcus aureus [4])	MIC (Staphylococcus aureus [5])	MIC (Cryptococcus neoformans [6])	MIC (Candida albicans [7])	MIC (Cryptococcus neoformans [8])	IC50 (Vero [9])	MIC (Nannizzia gypsea [10])	MIC (Staphylococcus aureus [11])	MIC (Staphylococcus aureus [12])	Activity (Candida albicans [13])	Activity (Staphylococcus aureus [14])	Activity (Staphylococcus aureus [15])	Activity (Vero [16])	Activity (Nannizzia gypsea [17])
C/C=C(\C)c1cc(O)c(C)c2c1Oc1cc(O)c(Cl)c(C)c1C(=O)O2	4.6 µg/mL (≈ 12.7 µM)	0.25 µg/mL (≈ 0.693 µM)	8 µg/mL (≈ 22.2 µM)	8 µg/mL (≈ 22.2 µM)	0.5 µg/mL (≈ 1.39 µM)	32 µg/mL (≈ 88.7 µM)	8 µg/mL (≈ 22.2 µM)	0.25 µg/mL (≈ 0.693 µM)	86 µg/mL (≈ 238 µM)	1 µg/mL (≈ 2.77 µM)	8 µg/mL (≈ 22.2 µM)						
C/C=C(\C)c1c(Cl)c(O)c(C)c2c1Oc1cc(O)c(Cl)c(C)c1C(=O)O2	4.6 µg/mL (≈ 11.6 µM)	0.25 µg/mL (≈ 0.633 µM)		2 µg/mL (≈ 5.06 µM)	0.5 µg/mL (≈ 1.27 µM)	128 µg/mL (≈ 324 µM)	200 µg/mL (≈ 506 µM)	0.25 µg/mL (≈ 0.633 µM)	8.9 µg/mL (≈ 22.5 µM)	1 µg/mL (≈ 2.53 µM)	1 µg/mL (≈ 2.53 µM)	0.25 µg/mL (≈ 0.633 µM)					
C/C=C(\C)c1cc(O)c(C)c2c1C(=O)Oc1c(C)c(O)c(Cl)c(/C(C)=C/C)c1O2	4.6 µg/mL (≈ 11.1 µM)	0.25 µg/mL (≈ 0.603 µM)		0.5 µg/mL (≈ 1.21 µM)	0.5 µg/mL (≈ 1.21 µM)	0.5 µg/mL (≈ 1.21 µM)		0.25 µg/mL (≈ 0.603 µM)	16 µg/mL (≈ 38.6 µM)	1 µg/mL (≈ 2.41 µM)	0.5 µg/mL (≈ 1.21 µM)	0.25 µg/mL (≈ 0.603 µM)	inactive				
C/C=C(\C)c1cc(O)c(C)c2c1Oc1c(C)c(O)cc(/C(C)=C/C)c1C(=O)O2		0.25 µg/mL (≈ 0.657 µM)		2 µg/mL (≈ 5.26 µM)	0.5 µg/mL (≈ 1.31 µM)	1 µg/mL (≈ 2.63 µM)		0.25 µg/mL (≈ 0.657 µM)	17 µg/mL (≈ 44.7 µM)	1 µg/mL (≈ 2.63 µM)	1 µg/mL (≈ 2.63 µM)	0.25 µg/mL (≈ 0.657 µM)	inactive				
C/C=C(\C)c1c2c(c(C)c(O)c1C(=O)O)OC(=O)c1c(C)cc(O)cc1O2	4.6 µg/mL (≈ 12.4 µM)	0.25 µg/mL (≈ 0.675 µM)			0.5 µg/mL (≈ 1.35 µM)	200 µg/mL (≈ 540 µM)		0.25 µg/mL (≈ 0.675 µM)		1 µg/mL (≈ 2.7 µM)		0.25 µg/mL (≈ 0.675 µM)	inactive	inactive	inactive	Non-Toxic	inactive
C/C=C(\C)c1cc(O)c(C)c(O)c1C(=O)Oc1cc2c(c(O)c1C)C(=O)O[C@@]2(C)CC	4.6 µg/mL (≈ 10.8 µM)	0.25 µg/mL (≈ 0.586 µM)		200 µg/mL (≈ 469 µM)	0.5 µg/mL (≈ 1.17 µM)	200 µg/mL (≈ 469 µM)		0.25 µg/mL (≈ 0.586 µM)	45 µg/mL (≈ 106 µM)	1 µg/mL (≈ 2.34 µM)	200 µg/mL (≈ 469 µM)	0.25 µg/mL (≈ 0.586 µM)	inactive				inactive
Clc1ccccc1C(c1ccccc1)(c1ccccc1)n1ccnc1 [CLOTRIMAZOLE]										2 µg/mL (≈ 5.8 µM)							
C[C@@H]1[C@H](O)[C@@H](C)/C=C/C=C/C=C/C=C/C=C/C=C/C=C/[C@H](O[C@@H]2O[C@H](C)[C@@H](O)[C@H](N)[C@@H]2O)C[C@@H]2O[C@](O)(C[C@@H](O)C[C@@H](O)[C@H](O)CC[C@@H](O)C[C@@H](O)CC(=O)O[C@H]1C)C[C@H](O)[C@H]2C(=O)O [AMPHOTERICIN B]		0.5 µg/mL (≈ 0.541 µM)						2 µg/mL (≈ 2.16 µM)									
C/C=C(\C)c1cc(O)c(C)c2c1C(=O)Oc1c(C)c(O)c(C(=O)O)c(/C(C)=C/C)c1O2	4.6 µg/mL (≈ 10.8 µM)	0.25 µg/mL (≈ 0.589 µM)	200 µg/mL (≈ 471 µM)		0.5 µg/mL (≈ 1.18 µM)	64 µg/mL (≈ 151 µM)		0.25 µg/mL (≈ 0.589 µM)		1 µg/mL (≈ 2.36 µM)	64 µg/mL (≈ 151 µM)	0.25 µg/mL (≈ 0.589 µM)	inactive			Non-Toxic	inactive
C/C=C(\C)c1cc(O)c(C)c(OC(=O)c2c(/C(C)=C/C)cc(O)c(C)c2O)c1 [AGONODEPSIDE A]					0.25 µg/mL (≈ 0.654 µM)			0.25 µg/mL (≈ 0.654 µM)			2 µg/mL (≈ 5.23 µM)	0.25 µg/mL (≈ 0.654 µM)					
C/C=C(\C)c1c(Cl)c(OC)c(C)c2c1Oc1c(Cl)c(O)c(Cl)c(C)c1C(=O)O2	4.6 µg/mL (≈ 10.4 µM)	0.25 µg/mL (≈ 0.563 µM)		4 µg/mL (≈ 9.01 µM)	0.5 µg/mL (≈ 1.13 µM)	16 µg/mL (≈ 36.1 µM)		0.25 µg/mL (≈ 0.563 µM)	57 µg/mL (≈ 128 µM)	1 µg/mL (≈ 2.25 µM)	8 µg/mL (≈ 18 µM)	0.25 µg/mL (≈ 0.563 µM)	inactive				inactive
Cc1c2ccncc2c(C)c2c1[nH]c1ccccc12 [ELLIPTECINE]	4 µg/mL (≈ 16.2 µM)																
C/C=C(\C)c1c(Cl)c(O)c(C)c2c1Oc1c(Cl)c(O)c(Cl)c(C)c1C(=O)O2	4.6 µg/mL (≈ 10.7 µM)	0.25 µg/mL (≈ 0.582 µM)		2 µg/mL (≈ 4.65 µM)	0.5 µg/mL (≈ 1.16 µM)	8 µg/mL (≈ 18.6 µM)		0.25 µg/mL (≈ 0.582 µM)	110 µg/mL (≈ 256 µM)	1 µg/mL (≈ 2.33 µM)	2 µg/mL (≈ 4.65 µM)	0.25 µg/mL (≈ 0.582 µM)	inactive				inactive
C/C=C(\C)c1cc(O)c(C)c(O)c1C(=O)Oc1cc(/C(C)=C/C)c(C(=O)O)c(O)c1C [AGONODEPSIDE B]					0.5 µg/mL (≈ 1.17 µM)			0.5 µg/mL (≈ 1.17 µM)		0.5 µg/mL (≈ 1.17 µM)	16 µg/mL (≈ 37.5 µM)						
C/C=C(\C)c1cc(OC(=O)c2c(C)cc(O)cc2O)c(C)c(O)c1C(=O)O	4.6 µg/mL (≈ 12.4 µM)	0.25 µg/mL (≈ 0.671 µM)		128 µg/mL (≈ 344 µM)	0.5 µg/mL (≈ 1.34 µM)	32 µg/mL (≈ 85.9 µM)		0.25 µg/mL (≈ 0.671 µM)	110 µg/mL (≈ 295 µM)	1 µg/mL (≈ 2.69 µM)	128 µg/mL (≈ 344 µM)	0.25 µg/mL (≈ 0.671 µM)	inactive				inactive
COC(=O)c1c(C)cc(O)cc1O [METHYL ORSELLINATE]	4.6 µg/mL (≈ 25.3 µM)	0.25 µg/mL (≈ 1.37 µM)			0.5 µg/mL (≈ 2.74 µM)	200 µg/mL (≈ 1100 µM)		0.25 µg/mL (≈ 1.37 µM)		1 µg/mL (≈ 5.49 µM)		0.25 µg/mL (≈ 1.37 µM)	inactive	inactive	inactive	Non-Toxic	inactive
C=C(c1cc(O)c(C)c2c1Oc1cc(O)cc(C)c1C(=O)O2)[C@H](C)O								0.5 µg/mL (≈ 1.46 µM)		0.5 µg/mL (≈ 1.46 µM)							
C/C=C(\C)c1cc(O)c(C)c2c1Oc1cc(O)cc(C)c1C(=O)O2				128 µg/mL (≈ 392 µM)		200 µg/mL (≈ 613 µM)		0.25 µg/mL (≈ 0.766 µM)		1 µg/mL (≈ 3.06 µM)			inactive		inactive	Non-Toxic	inactive
